Laboratory results published in US10000507B2, “Furo- and thieno-pyridine carboxamide compounds useful as pim kinase inhibitors” (Incyte Corporation, priority 2013, dated 2018).
pIC50: −log10 of the molar value.

What was measured:
Type in all cases: biochemical
Pim-3 = Pim-3 (Homo sapiens (Human), UniProt Q86V86); assay: Pim-3 kinase assay; conditions: 1 mM ATP, biotin-labeled BAD peptide substrate; read-out: Pim3 IC50
Method: (§1) Pim-1 and Pim-3 kinase assays-20 μL reactions were run in white 384 well polystyrene plates dotted with 0.8 μL compound/DMSO in the assay buffer (50 mM Tris, pH 7.5, 0.01% Tween-20, 5 mM MgCl2, 0.01% BSA, 5 mM DTT), containing […] Biotin-labeled BAD peptide substrate (AnaSpec 62269), 1 mM ATP, and 2.5 pM (Pim-1, Invitrogen PV3503) or 1.25 pM (Pim-3, Millipore 14-738) enzyme for 1 h at 25° C. Reactions were stopped by addition of 10 μL STOP Buffer (150 mM Tris, pH=7.5, 150 mM NaCl, 75 mM EDTA, 0.01% Tween-20, 0.3% BSA) supplemented with Phospho-Bad (Ser112) Antibody (Cell Signaling 9291) diluted 666-fold, and Streptavidin donor beads (PerkinElmer 6760002) along with Protein-A acceptor beads (PerkinElmer 6760137) at 15 μg/mL each. Supplementation of the STOP buffer with beads and stopping the reactions were done under reduced light. Prior to the stopping reactions STOP buffer with beads was pre-incubated for 1 h in the dark at room temperature. After stopping the reactions, plates were incubated for 1 h in the dark at room temperature before reading on a PHERAstar FS plate reader (BMG Labtech) under reduced light.

Pim-1 = Pim-1 (Homo sapiens (Human), UniProt P11309); assay: Pim-1 kinase assay; conditions: 1 mM ATP, biotin-labeled BAD peptide substrate; read-out: Pim1 IC50
Chain of Pim-1 (P11309 whole entry): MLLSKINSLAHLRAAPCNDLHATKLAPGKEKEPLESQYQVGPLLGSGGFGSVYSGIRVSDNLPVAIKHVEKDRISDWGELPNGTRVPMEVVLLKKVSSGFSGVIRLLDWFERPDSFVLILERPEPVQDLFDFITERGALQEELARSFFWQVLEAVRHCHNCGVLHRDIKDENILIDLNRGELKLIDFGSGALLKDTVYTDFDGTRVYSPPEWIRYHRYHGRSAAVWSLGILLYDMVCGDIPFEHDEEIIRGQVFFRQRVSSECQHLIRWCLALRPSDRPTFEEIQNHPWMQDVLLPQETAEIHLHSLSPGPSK
Method: as §1

Pim-2 = Pim-2 (Homo sapiens (Human), UniProt Q9P1W9); assay: Pim-2 kinase assay; conditions: 1 mM ATP, fluorescein-labeled CREBtide peptide substrate; read-out: Pim2 IC50
Chain of Pim-2 (Q9P1W9 whole entry): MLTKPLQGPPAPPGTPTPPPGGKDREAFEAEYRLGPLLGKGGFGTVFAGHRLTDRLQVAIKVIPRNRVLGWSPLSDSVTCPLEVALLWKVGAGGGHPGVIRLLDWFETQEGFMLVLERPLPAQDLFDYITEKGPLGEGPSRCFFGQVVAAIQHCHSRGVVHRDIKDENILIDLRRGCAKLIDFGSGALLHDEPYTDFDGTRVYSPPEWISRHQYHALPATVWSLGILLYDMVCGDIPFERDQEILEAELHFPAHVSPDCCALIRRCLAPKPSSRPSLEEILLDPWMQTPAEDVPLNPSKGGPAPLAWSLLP
Method: Pim-2 kinase assay-20 μL reactions were run in white 384 well polystyrene plates dotted with 0.8 μL compound/DMSO in the assay buffer (50 mM Tris, pH 7.5, 0.01% Tween-20, 5 mM MgCl2, 0.01% BSA, 5 mM DTT), containing 0.05 μm Fluorescein-labeled CREBtide peptide substrate (Invitrogen PV3508), 1 mM ATP, and 1 nM enzyme (Invitrogen PV3649) for 2 h at 25° C. Reactions were stopped by addition of 10 μL TR-FRET Dilution Buffer (Invitrogen PV3574) with 30 mM EDTA and 1.5 nM LanthaScreen Tb-CREB pSer133 antibody (Invitrogen PV3566). After 30 min. incubation at room temperature, plates were read on a PHERAstar FS plate reader (BMG Labtech).

## Cn1ncc(NC(=O)c2c(N)sc3cc(-c4c(F)cccc4F)cnc23)c1N1CCCC(N)CC1 (stereo not drawn) [Example 27, 2-Amino-N-[5-(4-aminoazepan-1-yl)-1-methyl-1H-pyrazol-4-yl]-6-(2,6-difluorophenyl)-thieno[3,2-b]pyridine-3-carboxamide]
Pim-3
  pIC50: ≥ 8.00
Pim-1
  pIC50: ≥ 8.00
Pim-2
  pIC50: 7.00 to 8.00

## Cc1noc(C)c1-c1cnc2c(C(=O)Nc3cnccc3N3CCC[C@H](N)C3)c(N)sc2c1 [Example 28, 2-Amino-N-{4-[(3S)-3-aminopiperidin-1-yl]pyridin-3-yl}-6-(3,5-dimethylisoxazol-4-yl)-thieno[3,2-b]pyridine-3-carboxamide]
Pim-3
  pIC50: < 7.40
Pim-1
  pIC50: ≥ 8.00
Pim-2
  pIC50: < 5.70

## Cc1noc(C)c1-c1cnc2c(C(=O)Nc3cnn(C)c3N3CCCC(N)CC3)c(N)sc2c1 (stereo not drawn) [Example 29, 2-Amino-N-[5-(4-aminoazepan-1-yl)-1-methyl-1H-pyrazol-4-yl]-6-(3,5-dimethylisoxazol-4-yl)-thieno[3,2-b]pyridine-3-carboxamide]
Pim-3
  pIC50: ≥ 8.00
Pim-1
  pIC50: ≥ 8.00
Pim-2
  pIC50: 6.00 to 7.00

## Cn1ncc(NC(=O)c2c(N)sc3cc(-c4nccs4)cnc23)c1N1CCCC(N)CC1 (stereo not drawn) [Example 30, 2-Amino-N-[5-(4-aminoazepan-1-yl)-1-methyl-1H-pyrazol-4-yl]-6-(1,3-thiazol-2-yl)-thieno[3,2-b]pyridine-3-carboxamide]
Pim-3
  pIC50: ≥ 8.00
Pim-1
  pIC50: ≥ 8.00
Pim-2
  pIC50: 7.00 to 8.00

## CN1CC(c2cnc3c(C(=O)Nc4cnccc4N4CCC[C@H](N)C4)c(N)sc3c2)C1 [Example 31, 2-Amino-N-{4-[(3S)-3-aminopiperidin-1-yl]pyridin-3-yl}-6-(1-methylazetidin-3-yl)thieno[3,2-b]pyridine-3-carboxamide]
Pim-3
  pIC50: ≥ 8.00
Pim-1
  pIC50: ≥ 8.00
Pim-2
  pIC50: 6.00 to 7.00

## CN1CC(c2cnc3c(C(=O)Nc4cnn(C)c4N4CCCC(N)CC4)c(N)sc3c2)C1 (stereo not drawn) [Example 32, 2-Amino-N-[5-(4-aminoazepan-1-yl)-1-methyl-1H-pyrazol-4-yl]-6-(1-methylazetidin-3-yl)thieno[3,2-b]pyridine-3-carboxamide]
Pim-3
  pIC50: ≥ 8.00
Pim-1
  pIC50: ≥ 8.00
Pim-2
  pIC50: 6.00 to 7.00

## CC(C)N1CC(c2cnc3c(C(=O)Nc4cnccc4N4CCC[C@H](N)C4)c(N)sc3c2)C1 [Example 33, 2-Amino-N-{4-[(3S)-3-aminopiperidin-1-yl]pyridin-3-yl}-6-(1-isopropylazetidin-3-yl)thieno[3,2-b]pyridine-3-carboxamide]
Pim-3
  pIC50: 7.00 to 8.00
Pim-1
  pIC50: ≥ 8.00
Pim-2
  pIC50: < 5.70

## COCc1cnc2c(C(=O)Nc3cnccc3N3CCC[C@H](N)C3)c(N)sc2c1 [Example 34, 2-Amino-N-{4-[(3S)-3-aminopiperidin-1-yl]pyridin-3-yl}-6-(methoxymethyl)thieno[3,2-b]pyridine-3-carboxamide]
Pim-3
  pIC50: ≥ 8.00
Pim-1
  pIC50: ≥ 8.00
Pim-2
  pIC50: 6.00 to 7.00

## Nc1sc2cc(C3CCOCC3)cnc2c1C(=O)Nc1cnccc1N1CCC[C@H](N)C1 [Example 35, 2-Amino-N-{4-[(3S)-3-aminopiperidin-1-yl]pyridin-3-yl}-6-(tetrahydro-2H-pyran-4-yl)thieno[3,2-b]pyridine-3-carboxamide]
Pim-3
  pIC50: ≥ 8.00
Pim-1
  pIC50: ≥ 8.00
Pim-2
  pIC50: 7.00 to 8.00

## Nc1sc2cc(F)cnc2c1C(=O)Nc1cnccc1N1CCC[C@H](N)C1 [Example 36, 2-Amino-N-{4-[(3S)-3-aminopiperidin-1-yl]pyridin-3-yl}-6-fluoro-thieno[3,2-b]pyridine-3-carboxamide]
Pim-3
  pIC50: ≥ 8.00
Pim-1
  pIC50: ≥ 8.00
Pim-2
  pIC50: 6.00 to 7.00

## Cn1ncc(NC(=O)c2c(N)sc3cc(F)cnc23)c1N1CCCC(N)CC1 (stereo not drawn) [Example 37, 2-Amino-N-[5-(4-aminoazepan-1-yl)-1-methyl-1H-pyrazol-4-yl]-6-fluoro-thieno[3,2-b]pyridine-3-carboxamide]
Pim-3
  pIC50: ≥ 8.00
Pim-1
  pIC50: ≥ 8.00
Pim-2
  pIC50: 6.00 to 7.00

## Nc1sc2c(C(F)(F)F)ccnc2c1C(=O)Nc1cnccc1N1CCC[C@H](N)C1 [Example 38, 2-Amino-N-{4-[(3S)-3-aminopiperidin-1-yl]pyridin-3-yl}-7-trifluoromethyl-thieno[3,2-b]pyridine-3-carboxamide]
Pim-3
  pIC50: ≥ 8.00
Pim-1
  pIC50: ≥ 8.00
Pim-2
  pIC50: 6.00 to 7.00

## Cn1ncc(NC(=O)c2c(N)sc3ccc(Cl)nc23)c1N1CCCC(N)CC1 (stereo not drawn) [Example 39, 2-Amino-N-[5-(4-aminoazepan-1-yl)-1-methyl-1H-pyrazol-4-yl]-5-chlorothieno[3,2-b]pyridine-3-carboxamide]
Pim-3
  pIC50: ≥ 8.00
Pim-1
  pIC50: ≥ 8.00
Pim-2
  pIC50: 6.00 to 7.00

## Cn1ncc(NC(=O)c2c(N)sc3ccc(Cl)nc23)c1N1CCC[C@H](N)C1 [Example 41, 2-Amino-N-{5-[(3S)-3-aminopiperidin-1-yl]-1-methyl-1H-pyrazol-4-yl}-5-chlorothieno[3,2-b]pyridine-3-carboxamide]
Pim-3
  pIC50: ≥ 8.00
Pim-1
  pIC50: ≥ 8.00
Pim-2
  pIC50: 6.00 to 7.00

## Cc1ccc2sc(N)c(C(=O)Nc3cnn(C)c3N3CCCC(N)CC3)c2n1 (stereo not drawn) [Example 43, 2-Amino-N-[5-(4-aminoazepan-1-yl)-1-methyl-1H-pyrazol-4-yl]-5-methylthieno[3,2-b]pyridine-3-carboxamide]
Pim-3
  pIC50: 7.00 to 8.00
Pim-1
  pIC50: ≥ 8.00
Pim-2
  pIC50: < 6.00

## Cn1ncc(NC(=O)c2c(N)sc3ccc(-c4ccccc4)nc23)c1N1CCCC(N)CC1 (stereo not drawn) [Example 44, 2-Amino-N-[5-(4-aminoazepan-1-yl)-1-methyl-1H-pyrazol-4-yl]-5-phenylthieno[3,2-b]pyridine-3-carboxamide]
Pim-3
  pIC50: ≥ 8.00
Pim-1
  pIC50: ≥ 8.00
Pim-2
  pIC50: < 5.70

## Nc1oc2cccnc2c1C(=O)Nc1cnccc1N1CCC[C@H](N)C1 [Example 45, 2-Amino-N-{4-[(3S)-3-aminopiperidin-1-yl]pyridin-3-yl}furo[3,2-b]pyridine-3-carboxamide]
Pim-3
  pIC50: ≥ 8.00
Pim-1
  pIC50: ≥ 8.00
Pim-2
  pIC50: 6.00 to 7.00

## Cn1ncc(NC(=O)c2c(N)oc3cccnc23)c1N1CCCC(N)CC1 (stereo not drawn) [Example 46, 2-Amino-N-[5-(4-aminoazepan-1-yl)-1-methyl-1H-pyrazol-4-yl]furo[3,2-b]pyridine-3-carboxamide]
Pim-3
  pIC50: 7.00 to 8.00
Pim-1
  pIC50: ≥ 8.00
Pim-2
  pIC50: < 5.70

## CCc1cnc2c(C(=O)Nc3cnccc3N3CCC[C@H](N)C3)c(N)oc2c1 [Example 47, 2-Amino-N-{4-[(3S)-3-aminopiperidin-1-yl]pyridin-3-yl}-6-ethylfuro[3,2-b]pyridine-3-carboxamide]
Pim-3
  pIC50: ≥ 8.00
Pim-1
  pIC50: ≥ 8.00
Pim-2
  pIC50: 7.00 to 8.00

## Nc1oc2cc(C(F)(F)F)cnc2c1C(=O)Nc1cnccc1N1CCC[C@H](N)C1 [Example 48, 2-amino-N-{4-[(3S)-3-aminopiperidin-1-yl]pyridin-3-yl}-6-(trifluoromethyl)furo[3,2-b]pyridine-3-carboxamide]
Pim-3
  pIC50: ≥ 8.00
Pim-1
  pIC50: ≥ 8.00
Pim-2
  pIC50: 7.00 to 8.00

## Cc1cnc2c(C(=O)Nc3cnccc3N3CCC[C@H](N)C3)c(N)oc2c1 [Example 49, 2-amino-N-{4-[(3S)-3-aminopiperidin-1-yl]pyridin-3-yl}-6-methyl-furo[3,2-b]pyridine-3-carboxamide]
Pim-3
  pIC50: ≥ 8.00
Pim-1
  pIC50: ≥ 8.00
Pim-2
  pIC50: 7.00 to 8.00

## CC(C)c1cnc2c(C(=O)Nc3cnccc3N3CCC[C@H](N)C3)c(N)oc2c1 [Example 50, 2-amino-N-{4-[(3S)-3-aminopiperidin-1-yl]pyridin-3-yl}-6-(iso-propyl)furo[3,2-b]pyridine-3-carboxamide]
Pim-3
  pIC50: ≥ 8.00
Pim-1
  pIC50: ≥ 8.00
Pim-2
  pIC50: 7.00 to 8.00

## CCCc1cnc2c(C(=O)Nc3cnccc3N3CCC[C@H](N)C3)c(N)oc2c1 [Example 51, 2-amino-N-{4-[(3S)-3-aminopiperidin-1-yl]pyridin-3-yl}-6-(propyl)furo[3,2-b]pyridine-3-carboxamide]
Pim-3
  pIC50: ≥ 8.00
Pim-1
  pIC50: ≥ 8.00
Pim-2
  pIC50: 7.00 to 8.00

## Nc1oc2cc(F)cnc2c1C(=O)Nc1cnccc1N1CCC[C@H](N)C1 [Example 52, 2-amino-N-{4-[(3S)-3-aminopiperidin-1-yl]pyridin-3-yl}-6-fluoro-furo[3,2-b]pyridine-3-carboxamide]
Pim-3
  pIC50: ≥ 8.00
Pim-1
  pIC50: ≥ 8.00
Pim-2
  pIC50: 6.00 to 7.00

## Nc1oc2cc(Cl)cnc2c1C(=O)Nc1cnccc1N1CCC[C@H](N)C1 [Example 53, 2-amino-N-{4-[(3S)-3-aminopiperidin-1-yl]pyridin-3-yl}-6-chloro-furo[3,2-b]pyridine-3-carboxamide]
Pim-3
  pIC50: ≥ 8.00
Pim-1
  pIC50: ≥ 8.00
Pim-2
  pIC50: 7.00 to 8.00
